In patent publication US20210395313A1, “PEPTIDE PAC1 ANTAGONISTS” (AMGEN INC., priority 2017, published 2021):
pIC50: −log10 of the molar value. Where a SMILES comes first, the peptide text is derived from it. Bridges are numbered along the chain shown (N, C = ends). Where no end group is shown, it is not given here. [ ]: non-standard residue; d: D form. Pra = C#CC[C@H](N)C(=O)O

Legend:
rat PAC1 receptor = biological target: T1, rat PAC1 receptor (Rattus norvegicus, UniProt P32215); test: LANCE Ultra cAMP accumulation antagonist assay in RG-2 cells; format: cell-based;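 also: RG-2 rat glioma cells endogenously expressing PAC1, test peptide preincubated 30 min, then PAC1 agonist added at its EC80 for 15 min, cAMP accumulation read by LANCE Ultra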
T1 construct: SHSY-5Y (human neuroblastoma cell line) and RG-2 (rat glioma cell line) cells endogenously express human and rat PAC1 receptors, respectively; endogenous in cells; host or cells: RG-2 rat glioma cells
T1 sequence (P32215 20-523): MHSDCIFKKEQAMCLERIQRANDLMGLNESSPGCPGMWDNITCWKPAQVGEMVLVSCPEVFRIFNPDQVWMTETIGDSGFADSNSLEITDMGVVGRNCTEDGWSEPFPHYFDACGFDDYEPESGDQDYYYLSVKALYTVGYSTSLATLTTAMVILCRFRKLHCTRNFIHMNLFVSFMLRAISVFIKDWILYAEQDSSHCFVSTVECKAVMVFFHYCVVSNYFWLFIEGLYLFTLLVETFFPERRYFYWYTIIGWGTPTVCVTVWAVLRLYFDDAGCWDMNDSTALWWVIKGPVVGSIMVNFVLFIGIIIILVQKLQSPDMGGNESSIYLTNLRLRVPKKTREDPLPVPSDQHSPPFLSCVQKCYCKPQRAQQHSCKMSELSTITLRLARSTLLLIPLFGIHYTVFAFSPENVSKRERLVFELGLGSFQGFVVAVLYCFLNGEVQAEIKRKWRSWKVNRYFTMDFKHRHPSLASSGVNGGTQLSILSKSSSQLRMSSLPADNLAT

human PAC1 receptor = biological target: T2, human PAC1 receptor (Homo sapiens, UniProt P41586); test: LANCE Ultra cAMP accumulation antagonist assay in SHSY-5Y cells; format: cell-based;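 also: inhibition of cAMP accumulation evoked by PAC1 agonist at its EC80 in SHSY-5Y cells endogenously expressing receptor, 30 min preincubation then 15 min agonist, TR-FRET readout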
T2 construct: SHSY-5Y (human neuroblastoma cell line) and RG-2 (rat glioma cell line) cells endogenously express human and rat PAC1 receptors, respectively; endogenous in cells; host or cells: SHSY-5Y human neuroblastoma cells
T2 sequence (P41586 21-468): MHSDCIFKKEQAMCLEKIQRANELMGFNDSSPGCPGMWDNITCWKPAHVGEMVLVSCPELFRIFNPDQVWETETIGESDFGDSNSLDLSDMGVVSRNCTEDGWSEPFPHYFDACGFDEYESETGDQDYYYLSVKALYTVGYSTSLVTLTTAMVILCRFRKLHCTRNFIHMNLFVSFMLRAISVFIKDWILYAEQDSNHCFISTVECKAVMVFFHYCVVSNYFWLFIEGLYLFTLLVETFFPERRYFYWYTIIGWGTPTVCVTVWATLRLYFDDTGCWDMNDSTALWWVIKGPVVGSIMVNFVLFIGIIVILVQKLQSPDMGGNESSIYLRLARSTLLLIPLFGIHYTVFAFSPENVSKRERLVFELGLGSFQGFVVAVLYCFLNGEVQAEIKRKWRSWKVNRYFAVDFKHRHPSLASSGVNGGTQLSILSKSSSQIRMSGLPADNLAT

Compound | pIC50 (rat PAC1 receptor) | pIC50 (human PAC1 receptor)
CDATCQFRKAIDDCDRQAHHSNVPGSVFKACMKQKKKEWKAGH (disulfide 1-5, 14-31) [compound 167] | 9.00 to 11.00 | 9.00 to 11.00
CC[C@H](C)[C@H](NC(=O)[C@H](C)NC(=O)[C@H](CCCCN)NC(=O)[C@H](CCCNC(=N)N)NC(=O)[C@H](Cc1ccccc1)NC(=O)[C@H](CCC(N)=O)NC(=O)[C@@H]1CSSC[C@H](N)C(=O)N[C@@H](CC(=O)O)C(=O)N[C@@H](C)C(=O)N[C@@H]([C@@H](C)O)C(=O)N1)C(=O)N[C@@H](CC(=O)O)C(=O)N[C@@H](CC(=O)O)C(=O)N[C@H]1CSSC[C@@H](C(=O)N[C@@H](CCSC)C(=O)N[C@@H](CCCCN)C(=O)N[C@@H](CCC(N)=O)C(=O)N[C@@H](CCCCN)C(=O)N[C@@H](CCCCN)C(=O)N[C@@H](CCCCN)C(=O)N[C@@H](CCC(=O)O)C(=O)N[C@@H](Cc2ccccc2)C(=O)N[C@@H](CCCCN)C(N)=O)NC(=O)[C@H](CCC(=O)O)NC(=O)[C@H](CCCCN)NC(=O)[C@H](Cc2ccccc2)NC(=O)[C@H](C(C)C)NC(=O)[C@H](CO)NC(=O)[C@H](CC(N)=O)NC(=O)CNC(=O)[C@H](C(C)C)NC(=O)[C@H](CC(N)=O)NC(=O)[C@H](CO)NC(=O)[C@H](Cc2c[nH]cn2)NC(=O)[C@H](Cc2c[nH]cn2)NC(=O)[C@H](C)NC(=O)[C@H](CCC(N)=O)NC(=O)[C@H](CCCCN)NC(=O)[C@H](CCC(N)=O)NC1=O [compound 275] (H-CDATCQFRKAIDDCQKQAHHSNVGNSVFKECMKQKKKEFK-NH2; disulfide 1-5, 14-31) | 7.00 to 9.00 | 7.00 to 9.00
CDATCQFRKAIDDCQ[Pra]QAHHSNVPGSVFKACMKQKKKEFKAG-NH2 (disulfide 1-5, 14-31) [compound 33] | 9.00 to 11.00 | 7.00 to 9.00
CDATCQFRKAIDDCQKQAHHSNVPGSVFKTCMKQKKKEFKAG-NH2 (disulfide 1-5, 14-31) [compound 146] | 9.00 to 11.00 | 9.00 to 11.00
CDATCQFRKAIDDCQKQAHHSNVPGSVFKACLKQKKKEFKAG-NH2 (disulfide 1-5, 14-31) [compound 143] | 9.00 to 11.00 | 9.00 to 11.00
CDATCQFRKAIDDCVYSAWHSNVPGSVFKACMKQKKKEFKAG-NH2 (disulfide 1-5, 14-31) [compound 83] | 9.00 to 11.00 | 9.00 to 11.00
CDATCQFRKAIDDCAWFALHSNVPGSVFKACMKQKKKEFKAG-NH2 (disulfide 1-5, 14-31) [compound 91] | 9.00 to 11.00 | 9.00 to 11.00
CC[C@H](C)[C@H](NC(=O)[C@H](C)NC(=O)[C@H](CCCCN)NC(=O)[C@H](CCCNC(=N)N)NC(=O)[C@H](Cc1ccccc1)NC(=O)[C@H](CCC(N)=O)NC(=O)[C@@H]1CSSC[C@H](N)C(=O)N[C@@H](CC(=O)O)C(=O)N[C@@H](C)C(=O)N[C@@H]([C@@H](C)O)C(=O)N1)C(=O)N[C@@H](CC(=O)O)C(=O)N[C@@H](CC(=O)O)C(=O)N[C@H]1CSSC[C@@H](C(=O)N[C@@H](CCSC)C(=O)N[C@@H](CCCCN)C(=O)N[C@@H](CCC(N)=O)C(=O)N[C@@H](CCCCN)C(=O)N[C@@H](CCCCN)C(=O)N[C@@H](CCCCN)C(=O)N[C@@H](CCC(=O)O)C(=O)N[C@@H](Cc2ccccc2)C(=O)N[C@@H](CCCCN)C(N)=O)NC(=O)[C@H](CCC(=O)O)NC(=O)[C@H](CCCCN)NC(=O)[C@H](Cc2ccccc2)NC(=O)[C@H](CO)NC(=O)[C@H](CC(N)=O)NC(=O)[C@H](CO)NC(=O)[C@H](Cc2c[nH]cn2)NC(=O)[C@H](Cc2c[nH]cn2)NC(=O)[C@H](C)NC(=O)[C@H](CCC(N)=O)NC(=O)[C@H](CCCCN)NC(=O)[C@H](CC(=O)O)NC1=O [compound 222] | 7.00 to 9.00 | > 11.00
CC[C@H](C)[C@H](NC(=O)[C@H](C)NC(=O)[C@H](CCCCN)NC(=O)[C@H](CCCNC(=N)N)NC(=O)[C@H](Cc1ccccc1)NC(=O)[C@H](CCC(N)=O)NC(=O)[C@@H]1CSSC[C@H](N)C(=O)N[C@@H](CC(=O)O)C(=O)N[C@@H](C)C(=O)N[C@@H]([C@@H](C)O)C(=O)N1)C(=O)N[C@@H](CC(=O)O)C(=O)N[C@@H](CC(=O)O)C(=O)N[C@H]1CSSC[C@@H](C(=O)N[C@@H](CCSC)C(=O)N[C@@H](CCCCN)C(=O)N[C@@H](CCC(N)=O)C(=O)N[C@@H](CCCCN)C(=O)N[C@@H](CCCCN)C(=O)N[C@@H](CCCCN)C(=O)N[C@@H](CCC(=O)O)C(=O)N[C@@H](Cc2ccccc2)C(=O)N[C@@H](CCCCN)C(=O)N[C@@H](C)C(=O)NCC(=O)N[C@@H](Cc2c[nH]cn2)C(=O)O)NC(=O)[C@H](C)NC(=O)[C@H](CCCCN)NC(=O)[C@H](Cc2ccccc2)NC(=O)[C@H](C(C)C)NC(=O)[C@H](CO)NC(=O)[C@H](CO)NC(=O)[C@H](Cc2c[nH]cn2)NC(=O)[C@H](Cc2c[nH]cn2)NC(=O)[C@H](C)NC(=O)[C@H](CCC(N)=O)NC(=O)[C@H](CCCCN)NC(=O)[C@H](C(C)C)NC1=O [compound 19] (H-CDATCQFRKAIDDCVKQAHHSSVFKACMKQKKKEFKAGH-OH; disulfide 1-5, 14-27) | 9.00 to 11.00 | 7.00 to 9.00
CDATCQFRKAIDDCWKQAHHSNVPGSVFKACMKQKKKEFKAG-NH2 (disulfide 1-5, 14-31) [compound 80] | > 11.00 | 9.00 to 11.00
CC[C@H](C)[C@H](NC(=O)[C@H](C)NC(=O)[C@H](CCCCN)NC(=O)[C@H](CCCNC(=N)N)NC(=O)[C@H](Cc1ccccc1)NC(=O)[C@H](CCC(N)=O)NC(=O)[C@@H]1CSSC[C@H](N)C(=O)N[C@@H](CC(=O)O)C(=O)N[C@@H](C)C(=O)N[C@@H]([C@@H](C)O)C(=O)N1)C(=O)N[C@@H](CC(=O)O)C(=O)N[C@@H](CC(=O)O)C(=O)N[C@H]1CSSC[C@@H](C(=O)N[C@@H](CCSC)C(=O)N[C@@H](CCCCN)C(=O)N[C@@H](CCC(N)=O)C(=O)N[C@@H](CCCCN)C(=O)N[C@@H](CCCCN)C(=O)N[C@@H](CCCCN)C(=O)N[C@@H](CCC(=O)O)C(=O)N[C@@H](Cc2ccccc2)C(=O)N[C@@H](CCCCN)C(=O)N[C@@H](C)C(=O)NCC(=O)N[C@@H](Cc2c[nH]cn2)C(=O)O)NC(=O)[C@H](C)NC(=O)[C@H](CCCCN)NC(=O)[C@H](Cc2ccccc2)NC(=O)[C@H](C(C)C)NC(=O)[C@H](CO)NC(=O)[C@H](CO)NC(=O)[C@H](Cc2c[nH]cn2)NC(=O)[C@H](Cc2c[nH]cn2)NC(=O)[C@H](C)NC(=O)[C@H](CCC(N)=O)NC(=O)[C@H](CCCNC(=N)N)NC(=O)[C@H](C)NC1=O [compound 36] (H-CDATCQFRKAIDDCARQAHHSSVFKACMKQKKKEFKAGH-OH; disulfide 1-5, 14-27) | 9.00 to 11.00 | 9.00 to 11.00
